Test system: not listed separately
Assay: physchem
Type: physicochemical
Details: saRNA-LNP with the lipid; TNS, pH 4 to 9.5, 25° C.; read-out: Apparent pKa
Description: In a black 96-well plate, solutions of saRNA-LNP (final assay concentration 2 μg/mL total RNA) in a series of buffers ranging from pH 4 to 9.5 were prepared. Buffers between pH 4 to 7.6 were prepared from disodium phosphate and citric acid. Buffers from 7.8 to 9.5 were prepared by titrating tris buffer with 10 N sodium hydroxide. To each well was added 6-(p-Toluidino)-2-naphthalenesulfonic acid sodium salt (TNS) in water to a final assay concentration of 6 μM. The fluorescence was read on a plate reader at 25° C. with an excitation setting of 321 nm and an emission setting of 445 nm. The intensity values were plotted as a function of pH using GraphPad Prism and were fit with a sigmoidal dose response curve. The apparent pKa was determined as the EC50 of this curve where half of the ionizable amines are expected to be protonated (see FIG. 1).

| SMILES | pKa |
| --- | --- |
| CCCCCCCCCC(CCCCCCCCC(=O)OCC(CCCC)CCCCCC)OC(=O)CC1CCN(C)CC1 (stereo not drawn) [SL14] | 6.63 |
| CCCCCCCCCC(CCCCCCCCC(=O)OCC(CCCC)CCCCCC)OC(=O)CCC1CCN(C)CC1 (stereo not drawn) [SL15] | 7.13 |

Test system: BHK-21 cells
Assay: In vitro potency: transfection of BHK-21 cells, 96-well imaging (Cytation 5)
Type: cell-based
Details: LNPs encapsulating saRNA expressing H5 and N1, FIG. 3
Description: For LNPs prepared with SL16, SL17, SL18, and SL21, a similar assay was performed in a 96-well plate using BHK-21 cells and analysed using a Cytation 5 Cell Imaging Multimode Reader (Agilent). The results of this assay were analysed in the same way as described for the flow cytometry assay, except only an H5-antibody was used for detection. In vitro transfection potency was determined for LNPs containing lipids SL16, SL17, SL18, and SL21. […] SL16 LNP, SL17 LNP, and SL18 LNP were formulated using a flow-rate ratio of 2:1. SL17 LNP2, SL18 LNP2, and SL21 were formulated using a flow-rate ratio of 3:1 (FIG. 3).

| SMILES | Ability to transfect cells (H5-antibody detection) |
| --- | --- |
| CCCCCCCCCC(CCCCCCCCC(=O)OCC(CCCC)CCCCCC)OC(=O)C1CCN(CCCO)CC1 (stereo not drawn) [SL16] | able to transfect BHK-21 cells in vitro |
| CCCCCCCCCC(CCCCCCCCC(=O)OCC(CCCC)CCCCCC)OC(=O)CC1CCN(CCCO)CC1 (stereo not drawn) [SL17] | able to transfect BHK-21 cells in vitro |
| CCCCCCCCCC(CCCCCCCCC(=O)OCC(CCCC)CCCCCC)OC(=O)CCC1CCN(CCCO)CC1 (stereo not drawn) [SL18] | able to transfect BHK-21 cells in vitro |
| CCCCCCCCCC(CCCCCCCCOC(=O)CC(CCCC)CCCCCC)OC(=O)CC1CCN(CCCO)CC1 (stereo not drawn) [SL21] | able to transfect BHK-21 cells in vitro |

— patent US20250281596A1, “IONIZABLE CATIONIC COMPOUND” (priority 2021, published 2025)
